Earlier results on one compound are cited in patent US20240035023A1, “COMPUTER IMPLEMENTED METHOD FOR E[…] FOR SYNTHESIS OF FL[…]” (Kcat Enzymatic Private Limited, priority 2022, published 2024).

In this series the target is fluorinase (Streptantibioticus cattleyicolor, UniProt Q70GK9).

Consider `Nc1ncnc2c1ncn2[C@@H]1O[C@H](CSCC[C@H](N)C(=O)O)[C@@H](O)[C@H]1O` [S-adenosyl-homocysteine], for which the “enzyme activity against the substrate” value is “no activity”.
